Measured values from US20240286179A1, “METHODS AND COMPOSITIONS FOR WASTE MANAGEMENT SYSTEMS” (priority 2023, published 2024).
Where two headings read alike, the source gives them in different places.

Key:
[1] = test system: chlorite dismutase (Cld) enzymes; details: for balloon inflation: creek water
Experimental: A qualitative sampling device was created using: 300 mL plastic water bottle, 7-inch balloon and 3×⅛ in rubber band. Freshwater, wet creek bed soil (alluvial soil), and dry creek bank soil samples were collected from a stream habitat (Denton Creek in Coppell, Texas). Samples were placed in a sampling device with or without sodium chlorite (0 g, 16 g, or 32 g) to screen for the presence of Cld enzymes by observing inflation of balloon.

[2] = test system: chlorite dismutase (Cld) enzymes
Experimental: Using water displacement method, the oxygen production and yield were calculated from 4 gm of sodium chlorite in a 300 mL wet creek bed soil sample (526 gm) placed in 500 mL Erlenmeyer flask with rubber stopper connected with rubber tubing to an inverted 1 L graduated beaker full of water and placed in a rectangular plastic tub with water.

methanogenesis [3] = test system: methanogenesis
Experimental: A composting experiment was conducted in a 2-liter plastic soda bottle with 1 cup of organic food waste from kitchen waste with coffee grounds, 1 cup of leaves or grass clippings, 1 cup of shredded paper, and 4 cups of wet creek bed soil with 16 g of sodium chlorite (9.6 g/kg soil concentration) or 4 cups of wet creek bed soil without sodium chlorite. Gas produced in this experiment was collected using water displacement method. The %/Vol of methane was measured with a portable multi 4 gas detector with air gas sampling pump.
The LEL of CH4 is 5% of gas volume.

[4] = test system: chlorite dismutase (Cld) enzymes; details: 16 g NaClO2 (30 g/kg)
Experimental: A qualitative reactor for detection of gas production was designed and constructed using: 300 mL plastic water bottle, 7-inch balloon and 3×⅛ in rubber band. The surface creek soil, deep creek soil, and landfill soil cover samples were placed in qualitative reactor with 16 g NaClO2 (30 g/kg soil concentration) and without any NaClO2 to screen for the presence of Cld enzymes by observing the inflation of balloon indicating biogas production.

methanogenesis [5] = test system: methanogenesis; remark: listed apart in the source
Experimental: An anoxic composting reactor was designed and constructed that comprised of a 2-liter plastic soda bottle attached to a 200 ml foil gas bag for quantitative gas analysis using gas chromatography. Composting experiments in anoxic composting reactor were conducted with 1 cup of organic food waste from kitchen waste with coffee grounds, 1 cup of leaves or grass clippings, 1 cup of shredded paper, and 4 cups of surface creek soil with 16 g of NaClO2 (9.6 g/kg soil concentration) or 4 cups of surface creek soil without NaClO2 or 4 cups of landfill cover soil with 16 g of NaClO2, or 4 cups or landfill cover soil without NaClO2.
Volumes of gas in the foil bags were estimated over a 3-week period. The gas samples were analyzed for fixed gases (hydrogen, oxygen, nitrogen, carbon monoxide, methane, and carbon dioxide) according to modified EPA Method 3C (single injection) using a gas chromatograph equipped with a thermal conductivity detector by ALS Environmental (Simi Valley, CA).

[6] = wet creek bed soil with 16 g NaClO2 (9.6 g/kg)

Substance: sodium chlorite [NaClO2]
- time to rapid balloon inflation ([1]; alluvial creek bed soil, 16 g (0.053 g/ml) NaClO2): ≤ 6 h
- balloon inflation ([1]; 16 g (0.053 g/ml) NaClO2, after 2 days): no balloon inflation
- balloon inflation ([1]; 32 g (0.11 g/ml) NaClO2, after 2 days): no balloon inflation
- measurable gas production ([2]; 4 g NaClO2 in 526 g creek bed soil (7.6 g/kg), over a 65-hour period before plateauing): 145 mL
- measurable volume as % of theoretical oxygen yield ([2]; reduction of 4 grams NaClO2, calculated using the Ideal Gas Law): around 14%
- Methane % Day 12 (methanogenesis [3]; Volume %, 16 g NaClO2 (9.6 g/kg), Day 12): 0.75%
- Methane % Day 23 (methanogenesis [3]; Volume %, 16 g NaClO2 (9.6 g/kg), Day 23): 0%
- Methane % Day 34 (methanogenesis [3]; Volume %, 16 g NaClO2 (9.6 g/kg), Day 34): 0%
- time at which gas production plateaued (methanogenesis [3]; [6]): about 134 hours
- time at which gas production was noted after set-up (methanogenesis [3]; [6]): one
- time within which most of the measurable gas production occurred (methanogenesis [3]; [6]): ≤ 46 h
- time to rapid balloon inflation ([4]; deep creek soil): ≤ 6 h
- balloon inflation ([4]; landfill cover soil): did not show any balloon inflation
- time to rapid balloon inflation ([4]; surface creek soil): ≤ 6 h
- millimoles of methane generated, creek reactors without NaClO2 compared with creek reactors with NaClO2 (methanogenesis [5]; P-value=0.037, one-tailed paired t test): significantly higher
- volume of biogas produced (methanogenesis [5]; creek soil reactors with NaClO2, spread +/−81, P=0.009 vs without NaClO2): 328 mL
- CO2 levels in gas (methanogenesis [5]; landfill soil cover samples with or without NaClO2): lower levels of CO2
- CO2 levels in gas (methanogenesis [5]; surface creek soil, 16 g NaClO2 (9.6 g/kg)): increasing levels of CO2
- onset of gas production (methanogenesis [5]; surface creek soil, 16 g NaClO2 (9.6 g/kg), over a 60-hour period): immediate gas production
